Source: patent US20250333733A1, “NOVEL TARGETS AGAINST OVARIAN CANCER” (UNIVERSITY OF PUERTO RICO, priority 2022, published 2025)

Legend:
CASC10 = assay: RT-qPCR of CASC10 expression after siRNA transfection in SKOV3ip1 cells; format: cell-based, human; conditions: SKOV3ip1 cells as printed
Description: SiRNA ON-TARGET plus SMARTpool (a mixture of 4 siRNA as a single tube) and a negative control siRNA (NC-siRNA) (Sigma-Aldrich) were used for transfection studies. CASC10, was targeted by using two siRNAs targeting different regions of the CASC10 RNA (e.g., CASC10-siRNA (1) and CASC10-siRNA (2)). OVCAR3CIS or SKOV3ip1CIS cells were seeded into 12-well plates at 3.0×10^4 cells/mL. The next day, siRNAs were mixed with HiPerfect transfection reagent (Qiagen, Valencia, CA) at a 1:2 ratio (SIRNA: HiPerfect) in serum and antibiotic-free Opti-MEM medium (Gibco) and added to the cells. After twenty-four hours the media was replaced by regular culture media, and cells were cultured and used for further experiments. To assess siRNA transfection efficiency, cells were collected 24 hours after siRNA transfection.
A custom-made 384-well plate containing pre-designed forward and reverse primers was purchased from Bio-Rad (CA, USA). Total RNA was isolated from OVCAR3 and OVCAR3CIS cells using the GenElute Mammalian Total RNA Mini Kit (Millipore-Sigma, MO, USA) following the manufacturer's instructions. […] Fold-changes and cycle threshold (Ct) values were calculated by the instrument's internal software relative to OVCAR3 cells and normalized to B-actin along with controls for gDNA, PCR reaction, RT reaction, and RNA quality.

OVCAR3CIS cells = assay: Cell viability, Alamar blue, siRNA alone or with cisplatin; format: cell-based; conditions: OVCAR3CIS, vs NC-siRNA
Description: OVCAR3CIS cells (3.0×10^4 cells/mL) or SKOV3ip1CIS (3.0×10^4 cells/mL) were seeded into 12-well plates. […] The next day, 400 cells (OVCAR3CIS) or 1,000 cells (SKOV3ip1CIS) were seeded into 6-well plates and incubated for seven days, fixed and stained with 0.5% crystal violet in methanol. Colonies of at least 50 cells were counted using a light microscope (CKX41: Olympus, Center Valley, PA, USA) with a total magnification of 40x. For cell viability assays, OVCAR3 and OVCAR3CIS (3.0×10^4 cells/mL) or SKOV3ip1and SKOV3ip1CIS (3.5×10^4 cells/mL) were seeded into 96-well plates, and 24 hours later, siRNA transfection was performed as described above. The next day, the transfection mix was replaced with cisplatin (CIS) (2.5 uM final concentration dissolved in regular cell culture media) and after forty-eight hours, the medium was removed, and Alamar blue dye (Invitrogen, Thermo Fisher Scientific, Eugene, OR, USA) was added following the manufacturer's instructions. Optical density (OD) was measured, and percentages of cell viability were calculated after blank OD subtraction. Untreated cells were assessed as 100% cell viability.

OVCAR3 cells = assay: Cell viability, Alamar blue, siRNA; format: cell-based; conditions: OVCAR3, any siRNA concentration tested, vs NC-siRNA
Description: OVCAR3CIS cells (3.0×10^4 cells/mL) or SKOV3ip1CIS (3.0×10^4 cells/mL) were seeded into 12-well plates. Twenty-four hours later, cells were transfected with 100 nM (final concentration) of each siRNA. The next day, 400 cells (OVCAR3CIS) or 1,000 cells (SKOV3ip1CIS) were seeded into 6-well plates and incubated for seven days, fixed and stained with 0.5% crystal violet in methanol. Colonies of at least 50 cells were counted using a light microscope (CKX41: Olympus, Center Valley, PA, USA) with a total magnification of 40x. For cell viability assays, OVCAR3 and OVCAR3CIS (3.0×10^4 cells/mL) or SKOV3ip1and SKOV3ip1CIS (3.5×10^4 cells/mL) were seeded into 96-well plates, and 24 hours later, siRNA transfection was performed as described above. The next day, the transfection mix was replaced with cisplatin (CIS) (2.5 uM final concentration dissolved in regular cell culture media) and after forty-eight hours, the medium was removed, and Alamar blue dye (Invitrogen, Thermo Fisher Scientific, Eugene, OR, USA) was added following the manufacturer's instructions. Optical density (OD) was measured, and percentages of cell viability were calculated after blank OD subtraction. Untreated cells were assessed as 100% cell viability.

Caspase-3 [1] = assay: Caspase-3 fluorometric activity in OVCAR3CIS cells; format: cell-based; conditions: 72 hours after transfection, vs NC-siRNA
Description: (§1) Caspase-3 activity was quantified using the Caspase-3/CPP32 Fluorometric Assay Kit (BioVision CA, USA) as per the manufacturer's instructions. OVCAR3CIS (3.0×10^4 cells/mL) or SKOV3ip1CIS (3.5×10^4 cells/mL) were seeded into 10 cm Petri dishes and transfected with NC-siRNA or CASC10-siRNA (2). Twenty-four hours later, the media was replaced by regular media, and seventy-two hours after transfection, cells were collected, pellets lysed, and total protein concentration determined. Equal amounts of protein were mixed with 2×Reaction Buffer and 1 mM DEVD-AFC substrate in a 96-well plate and incubated at 37° C. for 2.5 hours. Fluorescence intensity at 400 nm excitation and 505 nm emission was measured.

Caspase-3 [2] = assay: Caspase-3 fluorometric activity in SKOV3ip1CIS cells; format: cell-based, human; conditions: 72 hours after transfection, vs NC-siRNA
Description: as §1

SKOV3IP1CIS = assay: Cell cycle progression by flow cytometry; format: cell-based, human; conditions: 48 hours post-transfection
Description: To assess cell cycle progression, OVCAR3CIS (3.0×10^4 cells/mL) or SKOV3ip1CIS (3.5×10^4 cells/mL) were seeded into 10 cm Petri dishes and transfected with NC-siRNA or CASC10-siRNA (2). Forty-eight hours later, attached cells were collected, washed in ice-cold PBS, fixed with 70% cold ethanol, and stored at 4° C. Cells were then washed with ice-cold PBS, resuspended in propidium iodide (PI)/RNase Staining Buffer, incubated in the dark for 15 minutes at room temperature, and then analyzed by flow cytometry in BD C6 Accuri (CA, USA). Accuri's software was used to determine the percentage of cells in each cell cycle phase.

CASC10-siRNA (2): siRNA targeting CASC10 RNA, SEQ ID NO 3 and 4: 5′ GACUCUUGGAUCCAAGUUU(dT)(dT) 3′ / 5′ AAACUUGGAUCCAAGAGUC(dT)(dT) 3′ (chain 1 GACUCUUGGAUCCAAGUUUNN; chain 2 AAACUUGGAUCCAAGAGUCNN; 3' dTdT overhangs, chemistry not fully specified)
decrease of CASC10 relative expression (CASC10): 75% | reduction of cell viability (OVCAR3CIS cells; 50 nM siRNA): 15% | reduction of cell viability (OVCAR3CIS cells; 100 nM siRNA): 30% | cell viability (reduced to) (OVCAR3CIS cells; siRNA combined with CIS 2.5 μM): 56% | cell viability (OVCAR3 cells): did not significantly reduce cell viability | increase in caspase-3 activity (Caspase-3 [1]): 5 fold | increase in caspase-3 activity (Caspase-3 [2]): 4 fold | cell cycle progression (SKOV3IP1CIS): cell cycle arrest in the G0/G1 to S phase
